US7741521B2, “Inhibition of bid-induced cell-death using small organic molecules” (The Burnham Institute, priority 2004, dated 2010)
“Also recorded” adds a separate entry of the source.

Tests used:
tBID = target: T1, tBID (Mus musculus, UniProt P70444); assay: tBID-induced Smac release from isolated mitochondria; assay type: biochemical; conditions: for tBID-induced Smac release from mitochondria isolated from HeLa cells: 50 ng tBid
T1 construct: tBID was produced by cleavage of purified BID with caspase-8, as known in the art; made in house; host or cells: E. coli BL21 (BID), then cleaved in vitro with caspase-8
T1 sequence (P70444 60-195 limits assumed): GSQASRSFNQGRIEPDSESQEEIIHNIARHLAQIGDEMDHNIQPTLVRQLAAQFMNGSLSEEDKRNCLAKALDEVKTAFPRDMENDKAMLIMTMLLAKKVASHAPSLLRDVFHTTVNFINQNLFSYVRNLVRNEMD
T1 sequence (P70444 1-59 partner limits assumed): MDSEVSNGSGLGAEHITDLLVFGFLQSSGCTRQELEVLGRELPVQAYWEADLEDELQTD
Experimental: 100 ng of tBID (cleaved by caspase 8) was pre-incubated with various concentrations of compounds for 15 minutes at 30° C. in HM buffer (10 mM Hepes, pH 7.4, 250 mM Mannitol, 10 mM KCl, 1.5 mM MgCl, 1 mM DTT, 1 mM EGTA), then 50 μg of isolated mitochondria from HCT116 cells were added to a final volume of 50 μl in HM buffer. After 1 hour incubation at 30° C., the samples were centrifuged at 10,000×g for 5 minutes at 4° C. and the supernatant was analyzed by SDS-PAGE/immunoblotting using anti-SMAC antibody.
Compounds II-IX were tested in vitro for their ability to inhibit BID-mediated release of Smac using mitochondria isolated from HeLa cells (FIG. 6A). The first lane represents mitochondria incubated without tBID. All others received 100 ng tBID without or with compounds. Each compound was tested at a concentration of 50 μM. […] To preliminarily investigate the mechanism by which compound II reduces Smac-release from isolated mitochondria, the tBID protein was treated with different concentrations of BI-6C9, after which it was incubated with mitochondria, followed by analysis of the bound and unbound fractions by immunoblotting using BID antibody. The concentration of mitochondria-bound tBID diminished in response to increasing concentrations of compound II.
About 50 ng of tBID cleaved by […] was pre-incubated for about 15 minutes at about 30° C. with various concentrations of compounds I, II, and X. Then, about 50 μg of isolated mitochondria from Hela cells were added to the reaction system. After about 1 hour of incubation at about 30° C., the samples were centrifuged at 10,000×g for about 5 minutes at about 4° C., and the supernatant was analyzed by SDS-PAGE/immunoblotting using Smac antibody. The results of the analysis are presented on FIG. 8. As shown by FIG. 9, compound I is a strong binder for BID.
Some results of comparative studies of compounds I and II are shown on FIG. 10. […] The first lane represents mitochondria incubated without tBID. All others received 50 ng tBid without or with bi-dentate compound.

[1] = tested on: HeLa cells transfected with a plasmid encoding tBID; assay: Effector caspase activity in lysates of tBID-transfected cells; assay type: cell-based
Experimental: (§1) HEK 293T cells were transfected with 0.5 μg of plasmids encoding either GFP or GFP-tBID in 12 wells plate. After 3 hours transfection, various compounds were added in DMSO to the media. After 20 hours of further incubation, cells were collected and either lysed for caspase assays or fixed and stained with DAPI for determination of apoptosis^50. For caspase activity assays, 293T cells were lysed in lysis buffer (10 mM Hepes, pH 7.4, 142.2 mM KCl, 5 mM MgCl2, 0.5 mM EDTD, 0.5% NP-40) containing a protease inhibitor mixture (Roche Molecular Biochemicals). The lysates were normalized for protein concentration (10 μg), then incubated with 100 μM DEVD-AFC. Enzyme activity was determined by the release of AFC-fluorescence and Vmax was calculated (mean±Std. dev; n=3). For DAPI staining, 293T cells were fixed, washed with PBS, and stained with 0.1 mg/ml DAPI. The percentage of GFP-positive cells with apoptotic morphology (fragment nuclei or condensed chromatin) was determined (mean±Std. dev; n=3).
(§2) Compound II was also evaluated for its ability to inhibit BID-induced apoptosis in cell; for these experiments, HeLa cells were transfected with a plasmid encoding tBID, and effector caspase activity was measured in cell lysates 24 hours later. […] Moreover, tBID-induced cell death, as measured by caspase-3 activity, was reduced from 80±5% to 35±5% by 50 µM of compound II (FIG. 6E). […]

[2] = tested on: HeLa cells transfected with a plasmid encoding tBID; assay: tBID-induced cell death in transfected cells; assay type: cell-based; conditions: 50 µM; without compound 80±5%
Experimental: as §1, §2

BCL-XL = BCL-XL (Homo sapiens, UniProt Q07817); assay: NMR-binding assay against BCL-XL
Sequence of BCL-XL (Q07817 whole entry, species assumed): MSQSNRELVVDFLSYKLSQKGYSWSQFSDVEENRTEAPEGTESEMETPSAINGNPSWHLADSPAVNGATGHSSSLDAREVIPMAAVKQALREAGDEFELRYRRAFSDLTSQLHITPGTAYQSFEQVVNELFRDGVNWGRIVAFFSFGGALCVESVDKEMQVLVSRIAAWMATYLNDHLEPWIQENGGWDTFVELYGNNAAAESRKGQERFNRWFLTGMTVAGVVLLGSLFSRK

caspase-3 = target: T2, caspase-3 (Homo sapiens, UniProt P42574); assay: Caspase-3 in vitro assay; assay type: biochemical; conditions: concentrations used in the cellular assay
T2 sequence (P42574 29-175 limits assumed): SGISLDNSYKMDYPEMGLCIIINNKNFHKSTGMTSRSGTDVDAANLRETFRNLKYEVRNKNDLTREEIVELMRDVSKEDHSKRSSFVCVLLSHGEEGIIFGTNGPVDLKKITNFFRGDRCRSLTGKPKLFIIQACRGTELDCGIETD
T2 sequence (P42574 176-277 limits assumed): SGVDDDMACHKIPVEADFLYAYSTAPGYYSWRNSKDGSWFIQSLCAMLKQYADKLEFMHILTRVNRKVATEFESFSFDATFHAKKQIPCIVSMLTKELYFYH

[3] = tested on: rat embryonic cortical neurons; assay: Nuclear translocation of AIF in neurons exposed to glutamate; assay type: cell-based; conditions: glutamate 20 μM, 8 h
Experimental: Neuronal cell death was quantified after staining the nuclei with the DNA-binding fluorochrome Hoechst 33258 (Molecular Probes) or by the MTT assay. Immunocytochemistry was performed as described in the art, with a polyclonal anti-AIF antibody (sc-9416, Santa Cruz; 1:200) followed by incubation a biotinylated anti-goat IgG antibody (1:200) Vector Laboratories) and Oregon Green-streptavidin (Molecular Probes). After counterstaining with Hoechst 33342 images were acquired using a confocal laser scanning microscope (Axiovert, Zeiss) with a 60× oil immersion objective (514-nm excitation and 535-nm emission for detection of Oregon Green and 352-nm excitation and 460-nm emission for detection of Hoechst 33342).
Pretreatment with Compound I preserves nuclear morphology (blue fluorescence, Hoechst 33342) and prevents AIF translocation. […] Mean values and SD of 4 dishes per group are presented.

COc1ccc(S(=O)(=O)NCCCC(=O)Nc2ccc(Sc3ccc(N)cc3)cc2)cc1 [Compound II, N-[4-(4-amino-phenylsulfanyl)-phenyl]-4-(4-methoxy-benzenesulfonylamino)-butyramide]
tBID-induced Smac release from mitochondria isolated from HeLa cells (tBID): block | inhibition at 50 µM (tBID; 50 μM compound, isolated mitochondria): 100% | reduction of tBID-induced Smac release (tBID; 50 μM, 100 ng tBID, mitochondria isolated from HeLa cells): significantly reduce | decrease of Smac release, dose experiment (tBID; at concentrations as low as 20 μM): dramatically decreased | reduction of caspase-3 activity in tBID-transfected cells ([1]; 50 µM, 24 hours after transfection): ~4 fold | caspase activity in tBID-transfected cells ([1]; 100 µM): totally blocked | tBID-induced cell death [2]: 35±5% | binding to BCL-XL (BCL-XL): does not bind appreciably; also recorded: did not show appreciable binding | inhibition of caspase-3 (caspase-3): does not inhibit

Nc1ccc(Sc2ccc(NC(=O)CNC(=O)c3ccc(O)cc3O)cc2)cc1 [Compound I, N-((4-(4-aminophenylthio)phenylcarbamoyl)methyl)-2,4-dihydroxybenzamide]
tBID-induced Smac release from mitochondria isolated from HeLa cells (tBID): block | binding to BCL-XL (BCL-XL): did not show appreciable binding | nuclear translocation of AIF [3]: prevented
